Assays:
[1] = system: formation of NO, measured as NO2− (nitrites); experiment: Inhibition of NO (nitrite) formation in rabbit joint chondrocytes stimulated by IL-1β; type: cell-based; details: Oryctolagus cuniculus, Chondrocyte, IL-1β 1 ng/ml, 48 hours, NO determined as nitrites
Method: (§1) a) The activity in inhibiting the formation of NO, measured as NO2^− (nitrites), PGE2, and neutral protease, was investigated in vitro on culture broths of rabbit joint chondrocytes stimulated by cytokine IL-1β (1 ng/ml) for 48 hours. For the preparation of the chondrocytes, the method described by Berenbaum et al [FEBS Letters 340, 51-55 (1994)] was followed. Briefly, fragments of cartilage removed under sterile conditions from the heads of rabbit shoulder, hip and knee joints were chopped finely and digested at 37° C. by hyaluronidase, trypsin and collagenase solutions, giving rise, after filtration on sterile gauze and centrifuging at 600×g and suitable dilution with 10% DMEM-FCS, to a concentration of approximately 1×10^5 cells per well. The cells were kept in these conditions until confluence (about 15 days), the broth being changed every 3 days. At this point, the products under test, dissolved in the medium, were added to each test sample and, after 20 minutes, 350 μl IL-1β was added in order to have a final concentration of 1 ng/ml. The duration of the stimulation was 48 hours at 37° C. (incubation air-CO2 7%). Measurement of the nitrites, as described by Green et al. [Anal. Biochem. 126, 131-138 (1982)], and of the PGE2s by RIA measurement, was then performed on the cell supernatant fluid. The measurement of the neutral proteases was performed in the cell supernatant fluid containing the p-aminophenyl mercury acetate (APMA) activator with the use of azocoll as the substrate and with incubation at 37° C. for 17 h as described by Chavira et al. [Anal. Biochem. 136, 446-450 (1984)]. In order to evaluate the direct inhibitory effect of the compounds under test on the hydrolytic activity of the cell supernatant fluid, they were added to the supernatant fluid containing the proteases induced by IL-1β and already activated by AMPA.
(§2) The results obtained are shown in Table 3, in which the IC50, that is, the concentration (micromolar) of antagonist which can inhibit the formation of nitrites, PGE2s, and neutral proteases, respectively, by 50% relative to the control group, that is, to the cells stimulated with IL-1β but without the addition of antagonists, is given for some of the compounds of the invention already given by way of example in Table 2.

[2] = system: formation of PGE2; experiment: Inhibition of PGE2 formation in rabbit joint chondrocytes stimulated by IL-1β (RIA); type: cell-based; details: Oryctolagus cuniculus, Chondrocyte, IL-1β 1 ng/ml, 48 hours
Method: as §1, §2

[3] = system: neutral proteases (metalloproteases); experiment: Inhibition of neutral proteases (metalloproteases) in supernatant of IL-1β-stimulated rabbit joint chondrocytes, azocoll substrate; type: biochemical; details: IL-1β 1 ng/ml, 48 hours, APMA-activated supernatant, read-out: MP (metalloproteases) IC50
Method: as §1, §2

[4] = system: plasma TNFα; experiment: Plasma TNFα concentration in rats after stimulation with LPS (endotoxic shock); type: in vivo, rat; details: for TNFα (ng/ml ± SD): plasma 90 minutes after challenge
Method: c) The immunosuppressive activity of Compound I-4 was evaluated in an in vivo test in the rat, in which a lipopolysaccharide (LPS) of bacterial origin, injected i.p. at a dose of 6 mg/kg, induced a shock characterised by urgent diarrhoea accompanied by a large increase in the plasma TNFα concentration.
Blood was taken from the animals which were killed 90 minutes after the challenge and the concentration of TNFα in the plasma was determined by Elisa (Amersham Kit cod. RPN2734).

[5] = system: colitis induced by TNBS in rats; experiment: Colitis induced by TNBS in rats; type: in vivo, rat; details: for Weight of the colon: 48 hours after TNBS; for Weight of the colon / Myeloperoxidase activity / iNOS activity / Macroscopic damage (MDS): mean ± SD; for Myeloperoxidase activity / iNOS activity: colon tissue; for Macroscopic damage (MDS): score 0-10
Description: The combined capability of some of the compounds of the invention to inhibit both iNOS and the synthesis of TNFα has led to their activity being checked in an experimental model of colitis caused by a chemical hapten, trinitrobenzene-sulphonic acid (TNBS), which can bind to the tissue proteins and stimulate cell-mediated immunity. The intrarectal administration of TNBS in association with ethanol causes acute inflammation characterised by extensive ulceration and necrosis.
A distal colitis was therefore induced in the rat by intrarectal instillation of TNBS (40 mg/kg) dissolved in 50% ethanol (0.5 ml/rat). The drugs were administered orally twice a day on days −2; −1; 0; +1 and the animals were killed 48 hours after the administration of TNBS.
The parameters examined were: total weight of the colon (g), macroscopic tissue damage “score”, measurement of the tissue myeloperoxidase (MPO) activity, which is a marker of the infiltration of the neutrophiles, and measurement of the iNOS activity (pmoles/g tissue/min.).
The macroscopic score (MDS) was taken on about 10 cm of colon in accordance with the following arbitrary scale:
The tissue MPO measurement was performed according to Velgara et al., JPET 1994. The measurement of the tissue nitrites was performed by applying the method described above for the chondrocytes to the supernatant fluid of the tissue homogenate.
Compound I-4, administered in doses of 5, 10 and 20 mg/kg, and compound I-11 were examined, by administering them orally, in comparison with sulphasalazine (250 mg/kg) and 5-aminosalicylic acid (5-ASA) (100 mg/kg), 2 drugs which are widely used in the treatment of ulcerative colitis.

[6] = 50 μg/kg ICV + LPS 6 mg/kg I.P.

CCCCCNC(=S)Nc1ccc(NC(C)=N)cc1 [Compound I-4, N-[4-(N-acetamidine)phenyl]-N′-pentyl Thiourea]
IC50 [1]: 6.6 µM
IC50 [2]: 3.3 µM
IC50 [3]: 6.6 µM
Inhibition (%) of plasma TNFα [4, 6]: 96.2%
TNFα (ng/ml ± SD) [4, 6]: 2.3 ± 1.2 ng/mL
TNFα (ng/ml ± SD) ([4]; 10 mg/kg IV + LPS 6 mg/kg I.P.): 12.9 ± 7.2 ng/mL
TNFα (ng/ml ± SD) ([4]; 20 mg/kg OS + LPS 6 mg/kg I.P.): 30.6 ± 1.0 ng/mL
inhibition at 10 mg/kg ([4]; Rattus norvegicus, 10 mg/kg IV + LPS 6 mg/kg I.P.): 78.9%
Weight of the colon ([5]; 5 mg/kg orally twice a day): 2.2 ± 0.2 g
Myeloperoxidase activity ([5]; 5 mg/kg orally twice a day): 5.5 ± 1.4 UMPO/g/min
iNOS activity ([5]; 5 mg/kg orally twice a day): 131.7 ± 91.9 pmol/g/min
Macroscopic damage (MDS) ([5]; 5 mg/kg orally twice a day): 5.0 ± 0.9
Weight of the colon ([5]; 10 mg/kg orally twice a day): 2.1 ± 0.3 g
Myeloperoxidase activity ([5]; 10 mg/kg orally twice a day): 5.0 ± 1.7(*) UMPO/g/min
iNOS activity ([5]; 10 mg/kg orally twice a day): 98.6 ± 60.0 pmol/g/min
Macroscopic damage (MDS) ([5]; 10 mg/kg orally twice a day): 4.4 ± 0.8(*)
Weight of the colon ([5]; 20 mg/kg orally twice a day): 2.0 ± 0.2 g
Myeloperoxidase activity ([5]; 20 mg/kg orally twice a day): 5.1 ± 1.2(*) UMPO/g/min
iNOS activity ([5]; 20 mg/kg orally twice a day): 61.5 ± 31.4 pmol/g/min
Macroscopic damage (MDS) ([5]; 20 mg/kg orally twice a day): 3.5 ± 0.8(*)
reduction of macroscopic damage ([5]; doses of 10 and 20 mg/kg): about 50%
reduction of the increase in iNOS activity induced by TNBS ([5]; doses of 10 and 20 mg/kg): 50%
reduction of the increase in tissue MPO activity induced by TNBS ([5]; doses of 10 and 20 mg/kg): 40%
melting point: 190.7 to 191.4 °C
